Experimental data taken from ChEMBL document CHEMBL3045770, “Design and synthesis of some thieno[2,3-c]pyridazine derivatives of expected anticancer activity” (2013).

Assays:
Type in all cases: functional
SF-539 = assay: Cytotoxicity against Homo sapiens (human) SF539 assessed as cell growth at 10 uM after 48 hr by SRB assay relative to control; conditions: SF-539, 48 h, read-out: Activity
HL-60(TB) = assay: Cytotoxicity against Homo sapiens (human) HL-60(TB) assessed as cell growth at 10 uM after 48 hr by SRB assay relative to control; conditions: HL-60, 48 h, read-out: Activity
A549 = assay: Cytotoxicity against Homo sapiens (human) A549 assessed as cell growth at 10 uM after 48 hr by SRB assay relative to control; conditions: A549, 48 h, read-out: Activity
CCRF-CEM = assay: Cytotoxicity against Homo sapiens (human) CCRF-CEM assessed as cell growth at 10 uM after 48 hr by SRB assay relative to control; conditions: read-out: Activity
M14 = assay: Cytotoxicity against Homo sapiens (human) M14 assessed as cell growth at 10 uM after 48 hr by SRB assay relative to control; conditions: M14, 48 h, read-out: Activity
HT-29 = assay: Cytotoxicity against Homo sapiens (human) HT-29 assessed as cell growth at 10 uM after 48 hr by SRB assay relative to control; conditions: HT-29, 48 h, read-out: Activity
OVCAR-3 = assay: Cytotoxicity against Homo sapiens (human) OVCAR3 assessed as cell growth at 10 uM after 48 hr by SRB assay relative to control; conditions: OVCAR-3, 48 h, read-out: Activity
SW-620 = assay: Cytotoxicity against Homo sapiens (human) SW620 assessed as cell growth at 10 uM after 48 hr by SRB assay relative to control; conditions: SW-620, 48 h, read-out: Activity
SF-268 = assay: Cytotoxicity against Homo sapiens (human) SF268 assessed as cell growth at 10 uM after 48 hr by SRB assay relative to control; conditions: SF-268, 48 h, read-out: Activity
SNB-19 = assay: Cytotoxicity against Homo sapiens (human) SNB19 assessed as cell growth at 10 uM after 48 hr by SRB assay relative to control; conditions: SNB-19, 48 h, read-out: Activity
CAKI-1 = assay: Cytotoxicity against Homo sapiens (human) Caki1 assessed as cell growth at 10 uM after 48 hr by SRB assay relative to control; conditions: CAKI-1, 48 h, read-out: Activity
NCI-H226 = assay: Cytotoxicity against Homo sapiens (human) NCI-H226 assessed as cell growth at 10 uM after 48 hr by SRB assay relative to control; conditions: NCI-H226, 48 h, read-out: Activity
TK-10 = assay: Cytotoxicity against Homo sapiens (human) TK10 assessed as cell growth at 10 uM after 48 hr by SRB assay relative to control; conditions: TK-10, 48 h, read-out: Activity
ACHN = assay: Cytotoxicity against Homo sapiens (human) ACHN assessed as cell growth at 10 uM after 48 hr by SRB assay relative to control; conditions: read-out: Activity
DU-145 = assay: Cytotoxicity against Homo sapiens (human) DU145 assessed as cell growth at 10 uM after 48 hr by SRB assay relative to control; conditions: DU-145, 48 h, read-out: Activity
UACC-62 = assay: Cytotoxicity against Homo sapiens (human) UACC62 assessed as cell growth at 10 uM after 48 hr by SRB assay relative to control; conditions: UACC-62, 48 h, read-out: Activity
SK-MEL-2 = assay: Cytotoxicity against Homo sapiens (human) SK-MEL-2 assessed as cell growth at 10 uM after 48 hr by SRB assay relative to control; conditions: SK-MEL-2, 48 h, read-out: Activity
NCI-H460 = assay: Cytotoxicity against Homo sapiens (human) NCI-H460 assessed as cell growth at 10 uM after 48 hr by SRB assay relative to control; conditions: NCI-H460, 48 h, read-out: Activity
BT-549 = assay: Cytotoxicity against Homo sapiens (human) BT549 assessed as cell growth at 10 uM after 48 hr by SRB assay relative to control; conditions: BT-549, 48 h, read-out: Activity
MDA-MB-435 = assay: Cytotoxicity against Homo sapiens (human) MDA-MB-435 assessed as cell growth at 10 uM after 48 hr by SRB assay relative to control; conditions: MDA-MB-435, 48 h, read-out: Activity
HCT-116 = assay: Cytotoxicity against Homo sapiens (human) HCT116 assessed as cell growth at 10 uM after 48 hr by SRB assay relative to control; conditions: HCT-116, 48 h, read-out: Activity
RPMI-8226 = assay: Cytotoxicity against Homo sapiens (human) RPMI8226 assessed as cell growth at 10 uM after 48 hr by SRB assay relative to control; conditions: RPMI-8226, 48 h, read-out: Activity
MOLT-4 = assay: Cytotoxicity against Homo sapiens (human) MOLT4 assessed as cell growth at 10 uM after 48 hr by SRB assay relative to control; conditions: MOLT-4, 48 h, read-out: Activity
MDA-MB-468 = assay: Cytotoxicity against Homo sapiens (human) MDA-MB-468 assessed as cell growth at 10 uM after 48 hr by SRB assay relative to control; conditions: MDA-MB-468, 48 h, read-out: Activity
OVCAR-8 = assay: Cytotoxicity against Homo sapiens (human) OVCAR8 assessed as cell growth at 10 uM after 48 hr by SRB assay relative to control; conditions: OVCAR-8, 48 h, read-out: Activity
RXF 393 = assay: Cytotoxicity against Homo sapiens (human) RXF393 assessed as cell growth at 10 uM after 48 hr by SRB assay relative to control; conditions: RXF 393, 48 h, read-out: Activity
OVCAR-5 = assay: Cytotoxicity against Homo sapiens (human) OVCAR5 assessed as cell growth at 10 uM after 48 hr by SRB assay relative to control; conditions: OVCAR-5, 48 h, read-out: Activity
SK-OV-3 = assay: Cytotoxicity against Homo sapiens (human) SKOV3 assessed as cell growth at 10 uM after 48 hr by SRB assay relative to control; conditions: SK-OV-3, 48 h, read-out: Activity
SK-MEL-5 = assay: Cytotoxicity against Homo sapiens (human) SK-MEL-5 assessed as cell growth at 10 uM after 48 hr by SRB assay relative to control; conditions: SK-MEL-5, 48 h, read-out: Activity
EKVX = assay: Cytotoxicity against Homo sapiens (human) EKVX assessed as cell growth at 10 uM after 48 hr by SRB assay relative to control; conditions: read-out: Activity
SK-MEL-28 = assay: Cytotoxicity against Homo sapiens (human) SK-MEL-28 assessed as cell growth at 10 uM after 48 hr by SRB assay relative to control; conditions: SK-MEL-28, 48 h, read-out: Activity
[1] = Cytotoxicity against Homo sapiens (human) NCI-ADR-RES assessed as cell growth at 10 uM after 48 hr by SRB assay relative to control; conditions: read-out: Activity

Compound	growth at 10 µM (SF-539) [%]	growth at 10 µM (HL-60(TB)) [%]	growth at 10 µM (A549) [%]	growth at 10 µM (CCRF-CEM) [%]	growth at 10 µM (M14) [%]	growth at 10 µM (HT-29) [%]	growth at 10 µM (OVCAR-3) [%]	growth at 10 µM (SW-620) [%]	growth at 10 µM (SF-268) [%]	growth at 10 µM (SNB-19) [%]	growth at 10 µM (CAKI-1) [%]	growth at 10 µM (NCI-H226) [%]	growth at 10 µM (TK-10) [%]	growth at 10 µM (ACHN) [%]	growth at 10 µM (DU-145) [%]	growth at 10 µM (UACC-62) [%]	growth at 10 µM (SK-MEL-2) [%]	growth at 10 µM (NCI-H460) [%]	growth at 10 µM (BT-549) [%]	growth at 10 µM (MDA-MB-435) [%]	further results
Oc1c(-c2n[nH]c(=S)o2)sc2nnc(-c3ccccc3)c(-c3ccccc3)c12	106	101	107	96.1	99.5	114	115	124	102	103	93.3	91.5	103	92.4	112	94.3	106	116	99.5	93.6	growth at 10 µM (HCT-116): 103%; growth at 10 µM (RPMI-8226): 102%; growth at 10 µM (MOLT-4): 91%; growth at 10 µM (MDA-MB-468): 108%; growth at 10 µM (OVCAR-8): 106%; growth at 10 µM (RXF 393): 109%; growth at 10 µM (OVCAR-5): 102%; growth at 10 µM (SK-OV-3): 96.4%; growth at 10 µM (SK-MEL-5): 94.7%; growth at 10 µM (EKVX): 102%; growth at 10 µM (SK-MEL-28): 102%
CC(=O)Oc1c(C2=NN(C(C)=O)C(c3ccccc3[N+](=O)[O-])O2)sc2nnc(-c3ccccc3)c(-c3ccccc3)c12 (centres undefined)	107	58.9	103	19.6	91.8	87.5	93.4	82.8	85.6	88.6	98	93	107	86.8	104	80	101	100	89.8	97.9	growth at 10 µM [1]: 98.4%; growth at 10 µM (HCT-116): 76.8%; growth at 10 µM (RPMI-8226): 57.4%; growth at 10 µM (MOLT-4): 47.2%; growth at 10 µM (MDA-MB-468): 86.5%; growth at 10 µM (OVCAR-8): 90.1%; growth at 10 µM (RXF 393): 93.5%; growth at 10 µM (OVCAR-5): 95.1%; growth at 10 µM (SK-OV-3): 106%; growth at 10 µM (SK-MEL-5): 98.5%; growth at 10 µM (SK-MEL-28): 97.1%
CSc1nnc(-c2sc3nnc(-c4ccccc4)c(-c4ccccc4)c3c2O)o1	84.6	107	80.5	47.4	73	107	86.8	92.5	80.6	66.4	43.5	87.7	100	83.6	84.7	58.9	102	56.7	74.1	88.4	growth at 10 µM [1]: 85.5%; growth at 10 µM (HCT-116): 60.9%; growth at 10 µM (RPMI-8226): 67.2%; growth at 10 µM (MOLT-4): 61.9%; growth at 10 µM (MDA-MB-468): 78.9%; growth at 10 µM (OVCAR-8): 85.8%; growth at 10 µM (RXF 393): 82.6%; growth at 10 µM (OVCAR-5): 101%; growth at 10 µM (SK-MEL-5): 83.5%; growth at 10 µM (EKVX): 77.5%; growth at 10 µM (SK-MEL-28): 85.5%
CCOC(=O)c1c(Nc2ccc(S(=O)(=O)Nc3nccs3)cc2)nnc(-c2ccccc2)c1-c1ccccc1	117	104	110	91.3	104	116	120	131	112	108	107	102	109	102	114	92.9	118	111	98.9	119	growth at 10 µM (HCT-116): 98.6%; growth at 10 µM (RPMI-8226): 96.5%; growth at 10 µM (MOLT-4): 79.3%; growth at 10 µM (MDA-MB-468): 110%; growth at 10 µM (OVCAR-8): 102%; growth at 10 µM (RXF 393): 120%; growth at 10 µM (OVCAR-5): 117%; growth at 10 µM (SK-OV-3): 106%; growth at 10 µM (SK-MEL-5): 97.6%; growth at 10 µM (EKVX): 102%; growth at 10 µM (SK-MEL-28): 113%
